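These data come from cells grown in 96-well plates and exposed to compound for 48 hours at five concentrations. Abbreviation: GI50, concentration required for 50% inhibition of growth.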 The source made the active and inactive calls. No stated cut-off is given here; in the data, active = GI50 up to about 1.1 µM and inactive = higher.
What was measured:
Assay in all cases: DTP human tumour cell line panel, 48 h
786-0 = system: 786-0
A498 = system: A498
A549 = system: A549
ACHN = system: ACHN
BT-549 = system: BT-549
CAKI-1 = system: CAKI-1
CCRF-CEM = system: CCRF-CEM
COLO 205 = system: COLO 205
DU-145 = system: DU-145
EKVX = system: EKVX
HCC 2998 = system: HCC 2998
HCT-116 = system: HCT-116
HCT-15 = system: HCT-15
HL-60 = system: HL-60
HOP-62 = system: HOP-62
HT-29 = system: HT-29
IGROV-1 = system: IGROV-1
K562 = system: K562
KM12 = system: KM12
LOX IMVI = system: LOX IMVI
M14 = system: M14
MDA-MB-231 = system: MDA-MB-231
MDA-MB-435 = system: MDA-MB-435
MDA-N = system: MDA-N
MOLT-4 = system: MOLT-4
Malme-3M = system: Malme-3M
NCI-H226 = system: NCI-H226
NCI-H23 = system: NCI-H23
NCI-H522 = system: NCI-H522
NCI/ADR-RES = system: NCI/ADR-RES
OVCAR-3 = system: OVCAR-3
OVCAR-4 = system: OVCAR-4
OVCAR-5 = system: OVCAR-5
OVCAR-8 = system: OVCAR-8
PC-3 = system: PC-3
RPMI-8226 = system: RPMI-8226
SF-268 = system: SF-268
SF-295 = system: SF-295
SF-539 = system: SF-539
SK-MEL-2 = system: SK-MEL-2
SK-MEL-5 = system: SK-MEL-5
SK-OV-3 = system: SK-OV-3
SN12C = system: SN12C
SNB-75 = system: SNB-75
SR = system: SR
SW-620 = system: SW-620
T47D = system: T47D
TK-10 = system: TK-10
U-251 = system: U-251
UACC-257 = system: UACC-257
UACC-62 = system: UACC-62
UO-31 = system: UO-31
HOP-92 = system: HOP-92
NCI-H460 = system: NCI-H460
RXF 393 = system: RXF 393
SK-MEL-28 = system: SK-MEL-28
SNB-19 = system: SNB-19

COc1ccc2c(c1)CC1=C(O2)c2ccc(OC)cc2OC1
GI50 (786-0): 21.3 µM (inactive)
GI50 (A498): > 100 µM (inactive)
GI50 (A549): 74.6 µM (inactive)
GI50 (ACHN): 18.2 µM (inactive)
GI50 (BT-549): 21.5 µM (inactive)
GI50 (CAKI-1): 18.7 µM (inactive)
GI50 (CCRF-CEM): 31 µM (inactive)
GI50 (COLO 205): 18.3 µM (inactive)
GI50 (DU-145): 44.1 µM (inactive)
GI50 (EKVX): 15.2 µM (inactive)
GI50 (HCC 2998): 38.5 µM (inactive)
GI50 (HCT-116): 18.3 µM (inactive)
GI50 (HCT-15): 17.2 µM
GI50 (HL-60): > 100 µM (inactive)
GI50 (HOP-62): 41.9 µM (inactive)
GI50 (HT-29): 20.7 µM (inactive)
GI50 (IGROV-1): 28.5 µM (inactive)
GI50 (K562): 44.8 µM (inactive)
GI50 (KM12): 31 µM (inactive)
GI50 (LOX IMVI): 13.6 µM (inactive)
GI50 (M14): 19.7 µM (inactive)
GI50 (MDA-MB-231): 39.6 µM (inactive)
GI50 (MDA-MB-435): 17.5 µM (inactive)
GI50 (MDA-N): 17.5 µM (inactive)
GI50 (MOLT-4): 33.4 µM (inactive)
GI50 (Malme-3M): 22.5 µM (inactive)
GI50 (NCI-H226): 18.5 µM (inactive)
GI50 (NCI-H23): 45.7 µM (inactive)
GI50 (NCI-H522): 17 µM (inactive)
GI50 (NCI/ADR-RES): 34 µM (inactive)
GI50 (OVCAR-3): 19.9 µM (inactive)
GI50 (OVCAR-4): 22.5 µM (inactive)
GI50 (OVCAR-5): 49.4 µM (inactive)
GI50 (OVCAR-8): 29.9 µM (inactive)
GI50 (PC-3): 23.2 µM (inactive)
GI50 (RPMI-8226): 33.7 µM (inactive)
GI50 (SF-268): 24.4 µM (inactive)
GI50 (SF-295): 52.2 µM (inactive)
GI50 (SF-539): 35.9 µM (inactive)
GI50 (SK-MEL-2): 31.3 µM (inactive)
GI50 (SK-MEL-5): 18.2 µM (inactive)
GI50 (SK-OV-3): 90.4 µM (inactive)
GI50 (SN12C): 20.5 µM (inactive)
GI50 (SNB-75): 25 µM (inactive)
GI50 (SR): 36.8 µM (inactive)
GI50 (SW-620): 16.6 µM (inactive)
GI50 (T47D): 13.9 µM (inactive)
GI50 (TK-10): 22.6 µM (inactive)
GI50 (U-251): 17.5 µM (inactive)
GI50 (UACC-257): 19.2 µM (inactive)
GI50 (UACC-62): 17.7 µM (inactive)
GI50 (UO-31): 61.2 µM (inactive)

Cn1c2ccccc2n2c3ncccc3c(=O)cc12
GI50 (786-0): 37.3 µM (inactive)
GI50 (A498): 24.6 µM (inactive)
GI50 (A549): 20.2 µM (inactive)
GI50 (ACHN): 27 µM (inactive)
GI50 (BT-549): 65.8 µM (inactive)
GI50 (CAKI-1): 36.2 µM (inactive)
GI50 (COLO 205): 60.4 µM (inactive)
GI50 (DU-145): 49.5 µM (inactive)
GI50 (EKVX): 16.3 µM (inactive)
GI50 (HCT-116): 15 µM (inactive)
GI50 (HCT-15): 31 µM
GI50 (HOP-62): 32.1 µM (inactive)
GI50 (HOP-92): 54.5 µM (inactive)
GI50 (HT-29): 38.9 µM (inactive)
GI50 (IGROV-1): 28.9 µM (inactive)
GI50 (K562): 78.3 µM (inactive)
GI50 (KM12): 71.9 µM (inactive)
GI50 (LOX IMVI): 29.9 µM (inactive)
GI50 (M14): 64.3 µM (inactive)
GI50 (MDA-MB-231): 96.8 µM (inactive)
GI50 (MDA-MB-435): 61.5 µM (inactive)
GI50 (MDA-N): 54.8 µM (inactive)
GI50 (MOLT-4): 36.9 µM (inactive)
GI50 (Malme-3M): 45 µM (inactive)
GI50 (NCI-H226): 44.3 µM (inactive)
GI50 (NCI-H23): 43 µM (inactive)
GI50 (NCI-H460): 33 µM (inactive)
GI50 (NCI-H522): 31.3 µM (inactive)
GI50 (NCI/ADR-RES): 50.4 µM (inactive)
GI50 (OVCAR-3): 50.2 µM (inactive)
GI50 (OVCAR-4): > 100 µM (inactive)
GI50 (OVCAR-5): > 100 µM (inactive)
GI50 (OVCAR-8): 46.3 µM (inactive)
GI50 (RPMI-8226): 48.1 µM (inactive)
GI50 (RXF 393): 62.8 µM (inactive)
GI50 (SF-268): 64.4 µM (inactive)
GI50 (SF-295): 45.1 µM (inactive)
GI50 (SF-539): 45.9 µM (inactive)
GI50 (SK-MEL-28): > 100 µM (inactive)
GI50 (SK-MEL-5): 32.9 µM (inactive)
GI50 (SK-OV-3): > 100 µM (inactive)
GI50 (SN12C): 44.7 µM (inactive)
GI50 (SNB-19): 35.2 µM (inactive)
GI50 (SNB-75): 44.1 µM (inactive)
GI50 (SW-620): 50 µM (inactive)
GI50 (T47D): 55.7 µM (inactive)
GI50 (TK-10): 74.6 µM (inactive)
GI50 (U-251): 40.4 µM (inactive)
GI50 (UACC-257): 75 µM (inactive)
GI50 (UO-31): 26.3 µM (inactive)

Reference: ChEMBL document CHEMBL1201862, “PubChem BioAssay data set” (2004)
